Assay results taken from ChEMBL document CHEMBL5518197, “Recent advances in the development of deubiquitinases inhibitors as antitumor agents” (Eur J Med Chem, 2024).
Each block holds one molecule with its values, some of them ahead of it.

Columns and labels:
Caspase-3 = target: T1, Caspase-3 (Homo sapiens, UniProt P42574); test: Inhibition of caspase-3 (unknown origin) by microplate reader analysis
T1 sequence (P42574 whole entry): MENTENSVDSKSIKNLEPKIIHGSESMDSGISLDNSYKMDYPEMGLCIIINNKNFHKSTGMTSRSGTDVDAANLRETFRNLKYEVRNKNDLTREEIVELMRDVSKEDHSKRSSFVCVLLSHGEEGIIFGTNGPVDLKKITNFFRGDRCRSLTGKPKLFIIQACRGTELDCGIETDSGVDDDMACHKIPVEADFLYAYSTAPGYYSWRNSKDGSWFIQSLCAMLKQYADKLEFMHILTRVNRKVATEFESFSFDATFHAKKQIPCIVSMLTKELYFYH

[1] = target: T2, Ubiquitin carboxyl-terminal hydrolase 28 (Homo sapiens, UniProt Q96RU2); test: Inhibition of USP28 (unknown origin)
T2 sequence (Q96RU2 whole entry): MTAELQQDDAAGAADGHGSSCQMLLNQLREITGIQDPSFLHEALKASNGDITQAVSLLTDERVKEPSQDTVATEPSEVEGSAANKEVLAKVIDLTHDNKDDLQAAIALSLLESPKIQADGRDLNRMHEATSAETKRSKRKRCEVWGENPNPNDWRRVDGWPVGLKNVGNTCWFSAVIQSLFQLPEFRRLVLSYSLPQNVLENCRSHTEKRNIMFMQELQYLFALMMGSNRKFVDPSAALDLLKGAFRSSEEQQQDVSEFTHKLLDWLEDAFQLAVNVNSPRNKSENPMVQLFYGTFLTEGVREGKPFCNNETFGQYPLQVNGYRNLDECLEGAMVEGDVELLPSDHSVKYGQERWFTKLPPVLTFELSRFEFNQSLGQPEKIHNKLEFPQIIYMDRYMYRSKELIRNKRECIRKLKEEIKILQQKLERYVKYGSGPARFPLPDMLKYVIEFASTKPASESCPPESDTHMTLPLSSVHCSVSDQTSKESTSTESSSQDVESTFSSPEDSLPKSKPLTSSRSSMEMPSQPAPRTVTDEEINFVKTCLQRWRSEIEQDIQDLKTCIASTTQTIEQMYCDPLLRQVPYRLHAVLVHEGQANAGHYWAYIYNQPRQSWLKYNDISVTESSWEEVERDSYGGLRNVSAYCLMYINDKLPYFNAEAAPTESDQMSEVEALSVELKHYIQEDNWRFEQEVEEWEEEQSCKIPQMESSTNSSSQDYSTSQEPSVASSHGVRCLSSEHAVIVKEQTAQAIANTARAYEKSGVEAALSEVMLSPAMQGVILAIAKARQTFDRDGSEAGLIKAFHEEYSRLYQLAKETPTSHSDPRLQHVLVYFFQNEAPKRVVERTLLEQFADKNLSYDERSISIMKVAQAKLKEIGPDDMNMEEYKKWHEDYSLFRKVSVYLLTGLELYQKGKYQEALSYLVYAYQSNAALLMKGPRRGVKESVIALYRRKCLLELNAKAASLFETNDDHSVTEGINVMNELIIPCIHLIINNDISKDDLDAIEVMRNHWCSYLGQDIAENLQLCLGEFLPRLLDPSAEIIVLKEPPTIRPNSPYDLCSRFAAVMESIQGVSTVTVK

HCT-116 = test: Antiproliferative activity against human HCT-116 cells assessed as reduction in cell viability incubated for 48 hrs by MTT assay; type: functional, cell-based; settings: HCT-116, 48 h
[2] = target: T3, Ubiquitin carboxyl-terminal hydrolase 19 (Homo sapiens, UniProt O94966); test: Inhibition of C-terminal 6-His tagged USP19 (unknown origin) (1 to 1290 residues) using Ub-Rh110MP as substrate by fluorescence based assay
T3 sequence (O94966 whole entry): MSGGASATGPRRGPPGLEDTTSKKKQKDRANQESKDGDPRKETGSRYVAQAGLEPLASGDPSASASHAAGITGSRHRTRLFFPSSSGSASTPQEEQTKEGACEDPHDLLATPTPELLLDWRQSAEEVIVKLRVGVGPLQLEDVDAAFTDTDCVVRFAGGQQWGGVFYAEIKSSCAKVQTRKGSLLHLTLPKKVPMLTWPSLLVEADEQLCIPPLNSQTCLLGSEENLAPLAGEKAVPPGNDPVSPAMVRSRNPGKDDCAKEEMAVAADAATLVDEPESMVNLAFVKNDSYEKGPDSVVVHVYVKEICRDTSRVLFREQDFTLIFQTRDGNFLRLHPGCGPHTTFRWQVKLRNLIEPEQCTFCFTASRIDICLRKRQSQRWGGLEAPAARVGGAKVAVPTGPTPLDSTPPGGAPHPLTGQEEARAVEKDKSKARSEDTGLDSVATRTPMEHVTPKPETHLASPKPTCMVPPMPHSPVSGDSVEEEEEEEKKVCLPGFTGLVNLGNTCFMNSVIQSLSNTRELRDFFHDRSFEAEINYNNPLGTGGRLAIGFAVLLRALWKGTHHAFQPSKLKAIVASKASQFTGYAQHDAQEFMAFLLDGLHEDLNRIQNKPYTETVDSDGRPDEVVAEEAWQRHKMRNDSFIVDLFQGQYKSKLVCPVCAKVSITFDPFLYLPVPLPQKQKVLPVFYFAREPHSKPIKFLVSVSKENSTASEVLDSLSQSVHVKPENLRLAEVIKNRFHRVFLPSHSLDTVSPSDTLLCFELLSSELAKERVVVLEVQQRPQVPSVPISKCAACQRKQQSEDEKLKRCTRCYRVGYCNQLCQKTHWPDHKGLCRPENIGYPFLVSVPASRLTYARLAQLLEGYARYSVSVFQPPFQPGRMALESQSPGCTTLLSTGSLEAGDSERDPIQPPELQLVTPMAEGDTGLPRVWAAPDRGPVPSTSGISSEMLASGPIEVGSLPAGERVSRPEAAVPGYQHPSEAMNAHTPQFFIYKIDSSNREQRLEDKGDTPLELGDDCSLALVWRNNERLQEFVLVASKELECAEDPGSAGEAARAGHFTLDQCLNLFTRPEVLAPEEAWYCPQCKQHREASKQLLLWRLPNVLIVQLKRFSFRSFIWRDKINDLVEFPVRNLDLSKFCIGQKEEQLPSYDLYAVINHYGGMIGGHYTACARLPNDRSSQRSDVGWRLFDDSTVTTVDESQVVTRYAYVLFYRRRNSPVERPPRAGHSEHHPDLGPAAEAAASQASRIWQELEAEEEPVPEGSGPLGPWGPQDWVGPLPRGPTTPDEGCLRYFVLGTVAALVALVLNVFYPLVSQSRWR

[3] = target: Ubiquitin carboxyl-terminal hydrolase 7 (Homo sapiens, UniProt Q93009); test: Inhibition of full length His-tagged human recombinant USP7
Sequence of Ubiquitin carboxyl-terminal hydrolase 7 (Q93009 whole entry): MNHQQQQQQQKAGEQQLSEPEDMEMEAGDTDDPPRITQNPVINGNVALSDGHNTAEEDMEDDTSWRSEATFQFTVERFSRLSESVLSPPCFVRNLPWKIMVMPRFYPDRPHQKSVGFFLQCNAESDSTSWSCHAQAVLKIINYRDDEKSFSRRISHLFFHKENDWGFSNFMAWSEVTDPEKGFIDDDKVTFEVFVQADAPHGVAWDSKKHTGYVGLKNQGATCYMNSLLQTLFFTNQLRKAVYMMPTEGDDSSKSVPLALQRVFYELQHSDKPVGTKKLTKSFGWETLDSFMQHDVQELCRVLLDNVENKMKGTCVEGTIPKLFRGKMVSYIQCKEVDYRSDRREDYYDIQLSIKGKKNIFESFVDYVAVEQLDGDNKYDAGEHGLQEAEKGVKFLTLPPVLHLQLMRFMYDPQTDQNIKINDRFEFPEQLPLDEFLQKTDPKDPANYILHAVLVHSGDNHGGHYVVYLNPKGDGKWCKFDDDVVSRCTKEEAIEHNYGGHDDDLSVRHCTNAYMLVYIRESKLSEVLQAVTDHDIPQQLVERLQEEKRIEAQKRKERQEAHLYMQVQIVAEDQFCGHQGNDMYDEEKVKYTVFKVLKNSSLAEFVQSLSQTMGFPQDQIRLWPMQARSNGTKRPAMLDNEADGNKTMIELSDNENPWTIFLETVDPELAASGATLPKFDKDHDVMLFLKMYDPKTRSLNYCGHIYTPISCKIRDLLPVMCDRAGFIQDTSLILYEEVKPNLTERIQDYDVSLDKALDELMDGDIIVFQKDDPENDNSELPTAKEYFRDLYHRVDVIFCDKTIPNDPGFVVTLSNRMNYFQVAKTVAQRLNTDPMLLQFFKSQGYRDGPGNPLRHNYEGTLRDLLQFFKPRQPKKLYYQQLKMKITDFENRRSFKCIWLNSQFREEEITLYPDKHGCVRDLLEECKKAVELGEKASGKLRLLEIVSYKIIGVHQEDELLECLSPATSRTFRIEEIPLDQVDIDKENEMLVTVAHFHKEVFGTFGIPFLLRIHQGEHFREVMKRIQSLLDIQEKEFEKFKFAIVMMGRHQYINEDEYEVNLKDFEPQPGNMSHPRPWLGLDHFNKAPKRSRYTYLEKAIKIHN

[4] = target: T4, Ubiquitin carboxyl-terminal hydrolase isozyme L1 (Homo sapiens, UniProt P09936); test: Inhibition of human UCH-L1
T4 sequence (P09936 whole entry): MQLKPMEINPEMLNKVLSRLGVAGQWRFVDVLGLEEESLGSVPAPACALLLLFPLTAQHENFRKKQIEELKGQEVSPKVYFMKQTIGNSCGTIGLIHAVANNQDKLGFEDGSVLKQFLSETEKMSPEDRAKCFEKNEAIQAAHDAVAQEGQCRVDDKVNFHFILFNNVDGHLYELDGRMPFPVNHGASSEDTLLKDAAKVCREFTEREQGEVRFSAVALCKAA

[5] = target: T4, Ubiquitin carboxyl-terminal hydrolase isozyme L1; test: Inhibition of His-tagged UCH-L1 (unknown origin) expressed in Escherichia coli BL21 (DE3) by fluorescence based analysis
[6] = target: T4, Ubiquitin carboxyl-terminal hydrolase isozyme L1; test: Inhibition of recombinant wild type UCH-L1 (unknown origin) by fluorescence based analysis

- IC50 [1]: 29600 nM
Compound: OCCNCc1cc(Br)ccc1OCc1ccccc1

- IC50 (HCT-116): 1100 nM
Compound: Cc1ccc(S(=O)(=O)Nc2cc(C(F)(F)F)ccc2C(=O)Nc2nc(-c3ccccc3)cs2)cc1

- IC50 [3]: 193 nM
Compound: O=C(CCc1ccccc1)N1CCC(O)(Cn2cnc3cc(Cl)ccc3c2=O)CC1

- IC50 [5]: 7700 nM
Compound: COC(=O)CC[C@H](NC(=O)[C@H](C)NC[C@@H](NC(=O)OCc1ccccc1)C(C)C)C(=O)CF

Continued, molecule first:

Compound: C=CC(=O)N1C/C(=C\c2ccc([N+](=O)[O-])cc2)C(=O)/C(=C/c2ccc([N+](=O)[O-])cc2)C1
- IC50 (Caspase-3): 1050 nM

Compound: O=C1c2ccccc2C(=O)c2oc(-c3ccc(F)cc3)nc21
- IC50 [2]: 880 nM

Compound: O=C1c2ccccc2C(=O)c2oc(-c3ccccc3)nc21
- IC50 [2]: 544 nM

Compound: C=CC(=O)N1CC/C(=C\c2ccc(F)c([N+](=O)[O-])c2)C(=O)/C(=C/c2ccc(F)c([N+](=O)[O-])c2)C1
- IC50 (Caspase-3): 580 nM

Compound: CCc1ccc(S(=O)(=O)Nc2ccc(-c3ccc(NS(=O)(=O)c4ccc(CC)cc4)cc3)cc2)cc1
- IC50 [4]: 15000 nM

Compound: N#CN1CCC[C@H]1C(=O)N1CCc2c(-c3cn[nH]c3C(F)(F)F)cccc21
- IC50 [6]: 670 nM
